From BindingDB's records for doi:10.1124/jpet.104.081711 (Taisho Pharmaceutical, 2005)

Legend:
[1] = biological target: T1, 5-hydroxytryptamine receptor 1A (Homo sapiens, UniProt P08908)
T1 sequence (P08908 whole entry): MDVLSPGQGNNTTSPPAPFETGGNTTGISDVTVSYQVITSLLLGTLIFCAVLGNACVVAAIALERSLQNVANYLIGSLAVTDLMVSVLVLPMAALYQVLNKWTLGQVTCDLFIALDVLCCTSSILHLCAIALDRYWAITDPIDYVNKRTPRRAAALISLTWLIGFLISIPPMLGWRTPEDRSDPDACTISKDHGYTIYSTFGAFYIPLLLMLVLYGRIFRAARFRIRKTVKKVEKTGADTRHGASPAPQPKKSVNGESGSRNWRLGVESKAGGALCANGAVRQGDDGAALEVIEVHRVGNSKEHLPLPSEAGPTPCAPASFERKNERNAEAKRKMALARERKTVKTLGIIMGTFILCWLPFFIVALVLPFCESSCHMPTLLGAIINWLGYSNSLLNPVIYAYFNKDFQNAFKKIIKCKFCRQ

[2] = biological target: 5-hydroxytryptamine receptor 2B (Homo sapiens, UniProt P41595)
[3] = biological target: Melanin-concentrating hormone receptor 1 (Homo sapiens, UniProt Q99705)
Chain of Melanin-concentrating hormone receptor 1 (Q99705 as listed by the source): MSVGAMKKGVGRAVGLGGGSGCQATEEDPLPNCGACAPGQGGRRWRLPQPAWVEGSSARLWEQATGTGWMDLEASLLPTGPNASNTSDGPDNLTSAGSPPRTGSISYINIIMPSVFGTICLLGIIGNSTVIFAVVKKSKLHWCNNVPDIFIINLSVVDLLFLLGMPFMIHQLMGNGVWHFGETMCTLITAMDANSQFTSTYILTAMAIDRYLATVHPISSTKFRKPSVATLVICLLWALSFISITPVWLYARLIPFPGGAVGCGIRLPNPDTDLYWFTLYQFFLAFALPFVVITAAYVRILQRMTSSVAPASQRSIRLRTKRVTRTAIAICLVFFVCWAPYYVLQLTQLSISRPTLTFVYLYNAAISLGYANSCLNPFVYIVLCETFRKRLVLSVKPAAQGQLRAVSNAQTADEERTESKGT

Chain of 5-hydroxytryptamine receptor 2B (P41595 whole entry): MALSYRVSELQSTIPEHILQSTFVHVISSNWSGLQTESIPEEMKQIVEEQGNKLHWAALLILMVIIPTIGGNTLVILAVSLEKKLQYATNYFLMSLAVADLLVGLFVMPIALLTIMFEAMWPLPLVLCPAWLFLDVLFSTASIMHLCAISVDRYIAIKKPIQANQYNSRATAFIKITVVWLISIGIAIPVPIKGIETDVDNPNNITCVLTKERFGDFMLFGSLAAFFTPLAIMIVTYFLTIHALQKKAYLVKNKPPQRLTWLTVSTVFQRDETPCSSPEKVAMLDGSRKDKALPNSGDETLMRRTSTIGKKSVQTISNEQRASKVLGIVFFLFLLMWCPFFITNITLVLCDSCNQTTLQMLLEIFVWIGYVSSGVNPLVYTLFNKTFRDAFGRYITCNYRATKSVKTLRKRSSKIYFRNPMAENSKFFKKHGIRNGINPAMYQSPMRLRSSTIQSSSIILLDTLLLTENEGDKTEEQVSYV

Row | Compound | Ki [1] | Ki [2] | Ki [3]
1 | CN(C)c1nc(N[C@H]2CC[C@@H](NC(=O)c3ccc(F)c(F)c3)CC2)nc2ccccc12 [ATC0175] | 16.9 nM | 9.66 nM | –
2 | CN(C)c1nc(N[C@H]2CC[C@@H](NCCc3ccc(Br)cc3OC(F)(F)F)CC2)nc2ccccc12 [CAS_510732-84-0] | – | 266 nM | 15.7 nM
